Reference: PMC7280531, “A PROTAC peptide induces durable β-catenin degradation and suppresses Wnt-dependent intestinal cancer” (Cell Discovery, 2020)
Where a SMILES comes first, the peptide text is derived from it. Bridges are numbered along the chain shown (N, C = ends). [ ]: non-standard residue; d: D form. S5 = C=CCCC[C@](C)(N)C(=O)O; Ahx = NCCCCCC(=O)O

Experiments:
wild-type organoids = assay: Wild-type mouse intestinal organoid culture; type: cell-based; details: 10 μM peptides
Protocol: Fig. 5 xStAx-VHLL inhibits the growth of wild-type and APC^−/− organoids. a Wild-type organoids were cultured with 10 μM peptides for 4 days. The trypan blue staining at day 4 indicated the dead organoids. Scale bar = 100 μm. […] Relative β-catenin and cleaved caspase3 protein levels were quantified. e Wild-type organoids were cultured with 10 μM peptides for 3 h and harvested for qPCR analysis of Wnt target genes. f APC^−/− organoids were cultured with 50 μM peptides for 4 days. The trypan blue staining at day 4 indicated the dead organoids. Scale bar = 100 μm. […] Relative β-catenin and cleaved caspase3 protein levels were quantified. The relative band intensity was quantified with ImageJ and normalized to GAPDH levels.
Mouse intestinal crypts isolation and organoid culture were performed as previously described. Briefly, mouse intestine was cut longitudinally and washed three times with cold PBS. Villi were carefully scraped away and small pieces (5 mm) of intestine were incubated in 0.5 M EDTA in PBS for 40 min on ice. These pieces were then vigorously suspended in cold PBS and the mixture was passed through 70 μm cell strainer (BD Biosciences). The crypt fraction was enriched through centrifugation (3 min at 300–400 g). Then the crypts were embedded in Matrigel (BD Biosciences) and seeded on 48-well or 24-well plates. The intestinal organoid culture medium consists of Advanced DMEM/F12 supplemented with Penicillin/Streptomycin, GlutaMAX-I, N2, B27 and N-acetylcysteine (Sigma-Aldrich) and combination of growth factors including EGF (50 ng/mL, Invitrogen), Noggin (100 ng/mL, R&D) and R-spondin1 (500 ng/mL). The organoids were treated with proper dilution of peptides in the medium.
Supplementary Fig. S7. xStAx-VHLL restricts Lgr5+ intestinal stem cell
population and cell viability in intestinal organoids.
The organoids derived from the small intestine of Lgr5-GFP mice were treated with
10 μM peptides for 36 h and then collected for CytoFLEX flow cytometry to count
Lgr5+ intestinal stem cells (a) or viable cells (b). Data from 3 independent
(1 picture or pasted object on this page, not shown here)

HCT116 cells = assay: Cell proliferation assay (CCK-8), HCT116 cells; type: cell-based; details: 50 μM peptides, 6 days, cell number counted each day
Protocol: (§1) Equal number of cells (8000–10,000 cells) were seeded in the 24-well plates and then subjected to different treatments. The cell numbers were counted every 24 h with the CCK-8 cell counting kit (Dojindo Molecular Technologies) according to manufacturer’s instructions.

β-catenin = β-catenin immunoblotting in colorectal cancer cells (HCT116, SW480, LoVo); type: cell-based; details: for β-catenin protein level, MSAB versus xStAx-VHLL: 50 μM xStAx-VHLL
Protocol: Relative
β-catenin protein level was quantified with ImageJ and normalized to GAPDH. Data […]
(b) LoVo cells were treated with 50 μM xStAx (xS), 50 μM
immunoblotting. (c, d) LoVo (c) and SW480 (d) cells were treated with different

LoVo cells [1] = assay: Cell proliferation assay (CCK-8), LoVo cells; type: cell-based; details: 6 days
Protocol: as §1

[2] = tested on: CRC patient-derived organoids; assay: CRC patient-derived tumor organoid culture; type: cell-based, human; details: 10 μM
Protocol: Fig. 6 xStAx-VHLL restrains the survival of CRC patient-derived organoids. a Twelve CRC patient-derived organoids, numbered from C-01 to C-12, were treated with DMSO and 10 μM xStAx-VHLL for 4 days. The organoids survival rate of each group was calculated at day 4. b The C-08 organoids were treated with DMSO and 10 μM xStAx-VHLL for 4 days. The trypan blue staining at day 4 indicated the dead organoids. Scale bar = 100 μm. c The percentage of survived C-08 organoids was calculated each day after xStAx-VHLL treatment. d The C-08 organoids were treated with DMSO or 10 μM xStAx-VHLL for 48 h and then harvested for immunoblotting. Relative β-catenin protein levels were quantified. e The C-08 organoids were treated with DMSO and 10 μM xStAx-VHLL for 4 days. Scale bar = 100 μm. f The percentage of survived organoids in C-11 group was calculated each day after xStAx-VHLL treatment. g The C-11 organoids were treated with DMSO or 10 μM xStAx-VHLL for 48 h and then harvested for immunoblotting. Relative β-catenin protein levels were quantified. The relative band intensity was quantified with ImageJ and normalized to GAPDH levels.
CRC patient tumor tissues were washed with cold HBSS. After removing the muscle tissue, the epithelial tumor tissues were cut into small pieces and vigorously suspended. Then the tissue suspension was centrifuged (3 min at 300–400 g) and tumor fraction was enriched at the bottom. Next, the tumor fraction was embedded in Matrigel (BD Biosciences) and seeded on 24-well plates with the culture medium, which includes Advanced DMEM/F12 supplemented with Penicillin/Streptomycin, GlutaMAX-I, N2, B27, N-acetylcysteine (Sigma-Aldrich), CHIR-99021 (5 μM, Selleck), A-83–01 (0.5 μM, Cayman), SB202190 (10 μM, Selleck), gastrin (1 nM, Tocris), Y27632 (10 μM, Enzo), PEG2 (2.5 μM, Selleck), nicotinamide (10 mM, Sigma-Aldrich), EGF (50 ng/mL, Invitrogen), Noggin (100 ng/mL, R&D) and R-spondin1 (500 ng/mL).

LoVo cells [3] = assay: Tumor formation in nude mice from pretreated LoVo cells; type: in vivo, BALB/C nude mice
Protocol: Next, to examine the influence of the peptides on tumor formation, 3 × 10^6 LoVo cells were pretreated with each peptide at 50 μM for 24 h, followed by subcutaneous injection into BALB/C nude mice. After 3 weeks when tumors were visible, the mice were sacrificed for comparison of subcutaneous tumors among different groups.
LoVo cells cultured were pretreated with DMSO pr peptides (50 μM) for 24 h. Then the cells were digested with trypsin and centrifuge (3 min at 300–400 g). Cell pellets were washed with cold PBS three times and the cell number was counted. The BALB/C nude mice were subcutaneously injected with 3 × 10^6 cells. Three weeks later, the nude mice were sacrificed and dissected for tumors. Tumor weight was quantified.

[4] = Lgr5-GFP organoids, 36 h, flow cytometry

SMILES: CC[C@H](C)[C@@H]1NC(=O)[C@@](C)(NC(=O)[C@H](CCCNC(=N)N)NC(=O)[C@@H]2CCCN2C(=O)[C@H](Cc2c[nH]c3ccccc23)NC(=O)[C@H](CCCNC(=N)N)NC(=O)[C@H](CCCNC(=N)N)NC(C)=O)CCCC=CCCC[C@@](C)(C(=O)N[C@@H](Cc2c[nH]cn2)C(=O)N[C@H](C(=O)N[C@@H](CCCNC(=N)N)C(=O)N[C@@H](CCCNC(=N)N)C(=O)N[C@H](C(=O)N[C@@H](Cc2c[nH]c3ccccc23)C(=O)N[C@@H](CCCNC(=N)N)C(=O)NCCCCCC(=O)N[C@@H](C)C(=O)N[C@@H](CC(C)C)C(=O)N[C@@H](C)C(=O)N2CCC[C@H]2C(=O)N[C@@H](Cc2ccc(O)cc2)C(=O)N[C@H](C(=O)N2CCC[C@H]2C(N)=O)[C@@H](C)CC)C(C)C)C(C)C)NC(=O)[C@H](CC(=O)O)NC(=O)[C@H](CC(C)C)NC1=O [xStAx-VHLL] (Ac-RRWPR[S5]ILD[S5]HVRRVWR[Ahx]ALAPYIP-NH2; staple 6-10; N-terminus and C-terminus assumed)
- Wnt signaling target genes Lgr5, Axin2, Cyclin D1 and Myc (wild-type organoids; 3 h, qPCR): remarkably decreased
- cleaved caspase 3 level (wild-type organoids; 24 h, immunoblot): increased the cleaved caspase 3 level
- β-catenin protein level (wild-type organoids; 24 h, immunoblot): reduced the β-catenin protein level
- organoid survival and bud formation (wild-type organoids; 4 days): obviously impeded organoid survival and bud formation
- Lgr5+ intestinal stem cells (wild-type organoids; [4]): reduced
- viable cell population (wild-type organoids; [4]): also decreased
- proliferation of HCT116 cells (HCT116 cells): significantly attenuated the proliferation
- dose dependence of β-catenin degradation (β-catenin; CRC cells (HCT116, LoVo, SW480), indicated concentrations, 24 h): dose-dependent manner
- β-catenin level after wash-out of the peptide (β-catenin; HCT116, 50 μM peptide 24 h, then fresh medium 24 or 48 h): remained low after 24 h
- β-catenin degradation in colorectal cancer cells (β-catenin; HCT116, SW480 or LoVo, 50 μM peptides, 24 h, immunoblot): promotes the degradation of β-catenin
- β-catenin protein level, MSAB versus xStAx-VHLL (β-catenin; HCT116 and SW480, 10 μM MSAB, 24 h): decreased β-catenin protein to a comparable level
- β-catenin protein level, MSAB versus xStAx-VHLL (β-catenin; LoVo, 10 μM MSAB, 24 h): able to reduce the β-catenin protein level
- proliferation of LoVo cells (LoVo cells [1]; 50 μM peptides, cell number counted each day): significantly attenuated the proliferation
- proliferation of LoVo cells, MSAB versus xStAx-VHLL (LoVo cells [1]; 1 × 10^4 cells, 10 μM MSAB or 50 μM xStAx-VHLL): hampered by xStAx-VHLL
- β-catenin protein level in C-08 organoids ([2]; 2 days (48 h), immunoblot): reduced the β-catenin protein level
- survival of C-11 organoids ([2]; 4 days): insensitive to xStAx-VHLL
- patient-derived organoids whose survival was potently inhibited ([2]; 4 days, 12 CRC samples C-01 to C-12): 11/12
- survival of C-08 and C-05 organoids ([2]; 4 days, compared with DMSO control): strong inhibition function
- subcutaneous tumor size and weight (LoVo cells [3]; 3 × 10^6 LoVo cells pretreated with 50 μM peptide for 24 h, s.c. injection, 3 weeks, n = 10 mice per group): significantly smaller in size and weight
- β-catenin protein level in tumor extracts (LoVo cells [3]; tumors from pretreated LoVo cells, immunoblot, compared with other groups): apparently decreased
- Wnt target genes Axin2, Cyclin D1 and Myc in tumors (LoVo cells [3]; tumors from pretreated LoVo cells, qPCR): also decreased
